Among the data in patent US4689326A, “Process for controlling hyperlipidemia” (Research Corporation, priority 1985, dated 1987) are response vs control in vivo values, retold here.

Holding throughout (type): in vivo, CF1 male mice
Assay [1] has as its system serum cholesterol. Description: Testing of Normal Mice: serum cholesterol (modified Liebermann-Burchard), Example 7. Conditions: Mus musculus, 20 mg/kg/day ip. The procedure:
(§1) Suspensions of Compounds Nos. 1-9 were prepared wherein the compounds were suspended in an aqueous 1% carboxymethylcelluose solution, homogenized and administered to CF1 male mice, each weighing approximately 25 grams, intraperitoneally on a daily basis for 16 days. The dosage was, with the exception of one compound, 20 milligrams of the active compound per kilogram of mouse weight per day. On days 9 and 16 blood was obtained by tail vein bleeding. The blood serum was separated by centrifugation for three minutes. Serum cholesterol levels were determined by a modification of the Liebermann-Burchard reaction. Serum was also collected on day 16 and the triglycerides content was determined by a commercial kit, BioDynamics/bnc Single Vile Colorimetric Method 348201. Each compound was tested on a group of six mice.
(§2) In addition to the above-described treated mice, untreated control groups of six mice were similarly tested on days 9 and 14 or 16 to determine their serum cholesterol and triglycerides blood levels. Table 5 reports the percent control, based on the serum cholesterol and serum triglyceride levels of the treated mice compared to the untreated controls. Table 5 also includes the standard deviation indicating the level of confidence of these numbers.
(§3) Example 7 was repeated substituting clofibrate, a compound used in the prior art to lower serum cholesterol and serum triglyceride levels. The clofibrate was administered as a suspension in an aqueous 1% solution of carboxymethylcellulose. However, unlike the compounds of the present invention which were administered at a dosage of 20 mg/kg day, ip, this compound was administered at the elevated concentration of 150 mg/kg day, ip.

Assay [2] relates to serum triglycerides. Description: Testing of Normal Mice: serum triglycerides (BioDynamics kit), Example 7. Conditions: Mus musculus, 384 h; 20 mg/kg/day ip, day 16, ± SD. The procedure:
as §1, §2, §3

For assay [3], the system named is serum cholesterol. Description: Hypolipidemic Activity of Compounds 1 and 10-33, Example 13: serum cholesterol. Conditions: Mus musculus, 20 mg/kg/day ip. Here is the method:
(§4) Compounds 1 and 10-33, identified below in Table 11, were suspended by homogenation in a 1% aqueous solution of carboxymethylcellulose (CMC) such that a 0.2 ml dosage supplied a concentration of 20 mg/kg of the active compounds. The suspending agent, the 1% aqueous solution of CMC, was utilized as a control, applied in the same quantity, 0.2 ml. CF1 male mice, maintained in groups of six, were fed Wayne Blox [trademark] laboratory animal show ad libitum with water. The mice, which each weighed approximately 25 g, were administered the drugs interperitoneally at approximately the same time. On days 9 and 16 approximately […] of blood was taken from each of the animals by tail bleeding. After centrifugation to obtain serum, 25 microliter samples were assayed for total cholesterol utilizing the method of Ness et al. Serum triglyicerides were assayed, using a commercially available BioDynamics/bmc triglyiceride kit, on blood collected on the 16th day. By comparison to standards the milligram percent of cholesterol and milligram per deciliter concentration of triglicerides were calculated. Treated values were expressed as a percent of the level of the control animals plus or minus the standard deviation. The "T" values were obtained using the Student's "t" test.

The test system of assay [4] is serum triglycerides. As to the kind of experiment: Hypolipidemic Activity of Compounds 1 and 10-33, Example 13: serum triglycerides. Conditions: Mus musculus, 384 h; 20 mg/kg/day ip, day 16, ± SD; read-out: Serum Triglyceride as a function of control, 16 Day. Here is the method: as §4
Setting [5] is: 216 h, day 9, ± SD, read-out: Serum Cholesterol Control, % Day 9.
Where [6] appears, read: 384 h, day 16, ± SD, read-out: Serum Cholesterol Control, % Day 16.
Setting [7] is: 216 h, day 9, ± SD, read-out: Serum Cholesterol as a function of control, 9 Day.
The mark [8] stands for this setting: 384 h, day 16, ± SD, read-out: Serum Cholesterol as a function of control, 16 Day.

Take `O=C1NCc2ccccc2-c2ccccc21` [Compound 2, 3,4,5,6-dibenzohomopiperidin-2-one]: the response vs control in vivo at 20 mg/kg is 84 ± 6% in the assay with serum cholesterol [1] (setting [5]), 49 ± 4% in the assay with serum cholesterol [1] (setting [6]) and 73 ± 5% in the assay on serum triglycerides [2].

On to `CN1Cc2ccccc2-c2ccccc2C1` [Compound 4, 2-methyl-3,4,5,6-dibenzohomo-piperidine], for which the figures for the response vs control in vivo at 20 mg/kg in the assay with serum cholesterol [1] (setting [5]), in the assay with serum cholesterol [1] (setting [6]) and with serum triglycerides [2] were 75 ± 6%, 61 ± 5% and 66 ± 6%, respectively.

`CCN1Cc2ccccc2-c2ccccc2C1` [Compound 5, 2-ethyl-3,4,5,6-dibenzohomopiperidine]: the values for the response vs control in vivo at 20 mg/kg with serum cholesterol [1] (setting [5]), in the assay on serum cholesterol [1] (setting [6]) and in the assay with serum triglycerides [2] were 67 ± 5%, 59 ± 4% and 60 ± 4%, respectively.

`CCCN1Cc2ccccc2-c2ccccc2C1` [Compound 6, 2-propyl-3,4,5,6-dibenzohomopiperidine]: the results for the response vs control in vivo at 20 mg/kg in the assay on serum cholesterol [1] (setting [5]), with serum cholesterol [1] (setting [6]) and in the assay with serum triglycerides [2] were 78 ± 6%, 65 ± 5% and 73 ± 6%, respectively.

For the compound `Cn1c(=O)c2ccccc2c2ccccc2c1=O` [Compound 10, N-methyldiphenimide], the response vs control in vivo at 20 mg/kg in the assay on serum cholesterol [3] (setting [7]) stood at 64 ± 7%; with serum cholesterol [3] (setting [8]) it was 63 ± 5%; in the assay with serum triglycerides [4] it was 67 ± 6%.

Regarding `CCn1c(=O)c2ccccc2c2ccccc2c1=O` [Compound 11, N-ethyldiphenimide], the response vs control in vivo at 20 mg/kg in the assay with serum cholesterol [3] (setting [7]) worked out at 64 ± 6%; in the assay with serum cholesterol [3] (setting [8]) it was 62 ± 5%; with serum triglycerides [4], 66 ± 7%.

As to `CCCn1c(=O)c2ccccc2c2ccccc2c1=O` [Compound 12, N-propyldiphenimide], the response vs control in vivo at 20 mg/kg with serum cholesterol [3] (setting [7]) was determined as 69 ± 7%; in the assay with serum cholesterol [3] (setting [8]), 66 ± 6%; with serum triglycerides [4], 57 ± 5%.

With `CCCCn1c(=O)c2ccccc2c2ccccc2c1=O` [Compound 13, N-butyldiphenimide], the response vs control in vivo at 20 mg/kg worked out at 78 ± 7% in the assay with serum cholesterol [3] (setting [7]), 77 ± 10% with serum cholesterol [3] (setting [8]) and 52 ± 5% in the assay on serum triglycerides [4].

Consider `CCCCCn1c(=O)c2ccccc2c2ccccc2c1=O` [Compound 14, N-pentyldiphenimide], for which the results for the response vs control in vivo at 20 mg/kg in the assay with serum cholesterol [3] (setting [7]), in the assay with serum cholesterol [3] (setting [8]) and in the assay with serum triglycerides [4] were 90 ± 8%, 69 ± 4% and 60 ± 5%, respectively.

In the case of `O=c1c2ccccc2c2ccccc2c(=O)n1Cc1ccccc1` [Compound 15, N-benzyldiphenimide], the response vs control in vivo at 20 mg/kg with serum cholesterol [3] (setting [7]) was 91 ± 7%; with serum cholesterol [3] (setting [8]) it was 61 ± 6%; in the assay with serum triglycerides [4], 77 ± 7%.

`CC(=O)CCn1c(=O)c2ccccc2c2ccccc2c1=O` [Compound 16, N-(3-Oxobutyl)-Diphenimide]: the response vs control in vivo at 20 mg/kg was 77 ± 5% in the assay with serum cholesterol [3] (setting [7]), 77 ± 7% in the assay on serum cholesterol [3] (setting [8]) and 90 ± 4% in the assay with serum triglycerides [4].

As to `O=C(O)CCn1c(=O)c2ccccc2c2ccccc2c1=O` [Compound 17, N-(2-Carboxyethyl)-Diphenimide], the response vs control in vivo at 20 mg/kg turned out to be 88 ± 11% in the assay on serum cholesterol [3] (setting [7]), 84 ± 6% in the assay with serum cholesterol [3] (setting [8]) and 75 ± 10% with serum triglycerides [4].

Consider `O=c1c2ccccc2c2ccccc2c(=O)n1-c1ccccc1` [Compound 18, N-phenyldiphenimide], for which the response vs control in vivo at 20 mg/kg in the assay with serum cholesterol [3] (setting [7]) was 97 ± 8%; in the assay on serum cholesterol [3] (setting [8]), 67 ± 6%; with serum triglycerides [4], 62 ± 6%.

In the case of `COc1ccccc1-n1c(=O)c2ccccc2c2ccccc2c1=O` [Compound 19, N-(2-methoxy)-phenyldiphenimide], the values for the response vs control in vivo at 20 mg/kg in the assay with serum cholesterol [3] (setting [7]), in the assay on serum cholesterol [3] (setting [8]) and in the assay with serum triglycerides [4] were 80 ± 8%, 67 ± 5% and 68 ± 5%, respectively.

In the case of `COc1cccc(-n2c(=O)c3ccccc3c3ccccc3c2=O)c1` [Compound 20, N-(3-methoxy)phenyldiphenimide], the results for the response vs control in vivo at 20 mg/kg with serum cholesterol [3] (setting [7]), in the assay with serum cholesterol [3] (setting [8]) and in the assay with serum triglycerides [4] were 84 ± 7%, 74 ± 7% and 72 ± 8%, respectively.

Turning to `COc1ccc(-n2c(=O)c3ccccc3c3ccccc3c2=O)cc1` [Compound 21, N-(4-methoxy)-phenyldiphenimide], the response vs control in vivo at 20 mg/kg in the assay with serum cholesterol [3] (setting [7]) came out at 91 ± 7%; in the assay with serum cholesterol [3] (setting [8]) it was 84 ± 8%; in the assay with serum triglycerides [4], 74 ± 6%.

Take `Cc1ccccc1-n1c(=O)c2ccccc2c2ccccc2c1=O` [Compound 22, N-(2-methyl)-phenyldiphenimide]: the response vs control in vivo at 20 mg/kg turned out to be 78 ± 7% in the assay on serum cholesterol [3] (setting [7]), 61 ± 6% in the assay with serum cholesterol [3] (setting [8]) and 65 ± 6% in the assay on serum triglycerides [4].

`Cc1cccc(-n2c(=O)c3ccccc3c3ccccc3c2=O)c1` [Compound 23, N-(3-methyl)-phenyldiphenimide]: the response vs control in vivo at 20 mg/kg in the assay on serum cholesterol [3] (setting [7]) turned out to be 78 ± 7%; in the assay on serum cholesterol [3] (setting [8]) it was 76 ± 7%; in the assay on serum triglycerides [4], 63 ± 6%.

Regarding `Cc1ccc(-n2c(=O)c3ccccc3c3ccccc3c2=O)cc1` [Compound 24, N-(4-methyl)-phenyldiphenimide], the response vs control in vivo at 20 mg/kg came to 57 ± 7% with serum cholesterol [3] (setting [7]), 52 ± 6% in the assay with serum cholesterol [3] (setting [8]) and 60 ± 7% in the assay on serum triglycerides [4].

In the case of `CCc1ccccc1-n1c(=O)c2ccccc2c2ccccc2c1=O` [Compound 25, N-(2-ethyl)phenyldiphenimide], the response vs control in vivo at 20 mg/kg was 82 ± 8% in the assay on serum cholesterol [3] (setting [7]), 73 ± 6% in the assay on serum cholesterol [3] (setting [8]) and 84 ± 7% in the assay on serum triglycerides [4].

As to `CCc1cccc(-n2c(=O)c3ccccc3c3ccccc3c2=O)c1` [Compound 26, N-(3-ethyl)-phenyldiphenimide], the response vs control in vivo at 20 mg/kg in the assay with serum cholesterol [3] (setting [7]) came out at 95 ± 7%; in the assay on serum cholesterol [3] (setting [8]), 77 ± 7%; in the assay on serum triglycerides [4], 66 ± 6%.

For `CCc1ccc(-n2c(=O)c3ccccc3c3ccccc3c2=O)cc1` [Compound 27, N-(4-ethyl)-phenyldiphenimide], the response vs control in vivo at 20 mg/kg in the assay with serum cholesterol [3] (setting [7]) stood at 101 ± 8%; in the assay on serum cholesterol [3] (setting [8]), 71 ± 5%; in the assay on serum triglycerides [4], 70 ± 7%.

Regarding `O=c1c2ccccc2c2ccccc2c(=O)n1-c1ccccc1Cl` [Compound 28, N-(2-chloro)-phenyldiphenimide], the figures for the response vs control in vivo at 20 mg/kg in the assay with serum cholesterol [3] (setting [7]), in the assay with serum cholesterol [3] (setting [8]) and in the assay on serum triglycerides [4] were 67 ± 6%, 64 ± 5% and 65 ± 6%, respectively.

With `O=c1c2ccccc2c2ccccc2c(=O)n1-c1cccc(Cl)c1` [Compound 29, N-(3-chloro)-phenyldiphenimide], the response vs control in vivo at 20 mg/kg was found to be 81 ± 8% with serum cholesterol [3] (setting [7]), 78 ± 8% in the assay with serum cholesterol [3] (setting [8]) and 87 ± 7% in the assay with serum triglycerides [4].

Take `O=c1c2ccccc2c2ccccc2c(=O)n1-c1ccc(Cl)cc1` [Compound 30, N-(4-chloro)phenyldiphenimide]: the response vs control in vivo at 20 mg/kg is 74 ± 6% with serum cholesterol [3] (setting [7]), 67 ± 5% in the assay with serum cholesterol [3] (setting [8]) and 64 ± 4% in the assay on serum triglycerides [4].

On to `CC(=O)c1ccccc1-n1c(=O)c2ccccc2c2ccccc2c1=O` [Compound 31, N-(2-acetyl)-phenyldiphenimide], for which the response vs control in vivo at 20 mg/kg is 79 ± 7% in the assay with serum cholesterol [3] (setting [7]), 76 ± 6% with serum cholesterol [3] (setting [8]) and 58 ± 6% in the assay on serum triglycerides [4].

Regarding `CC(=O)c1cccc(-n2c(=O)c3ccccc3c3ccccc3c2=O)c1` [Compound 32, N-(3-acetyl)-phenyldiphenimide], the response vs control in vivo at 20 mg/kg in the assay on serum cholesterol [3] (setting [7]) came out at 77 ± 8%; in the assay with serum cholesterol [3] (setting [8]) it was 68 ± 6%; in the assay with serum triglycerides [4], 58 ± 4%.

In the case of `CC(=O)c1ccc(-n2c(=O)c3ccccc3c3ccccc3c2=O)cc1` [Compound 33, N-(4-acetyl)-diphenimide], the response vs control in vivo at 20 mg/kg in the assay on serum cholesterol [3] (setting [7]) is 80 ± 5%; in the assay on serum cholesterol [3] (setting [8]) it was 73 ± 5%; with serum triglycerides [4], 70 ± 5%.
